This passage reports EC50 results from patent publication US11578069B2, “Compounds for inhibition of α4 β7 integrin” (Gilead Sciences, Inc., priority 2019, dated 2023).

In one experiment the target is T1, α4β7 integrin (Homo sapiens, UniProt P13612+P26010).
T1 construct: monitoring the capture of α4β7 integrin expressing cells; endogenous in cells; host or cells: RPMI8866
T1 sequence (P13612 34-1032): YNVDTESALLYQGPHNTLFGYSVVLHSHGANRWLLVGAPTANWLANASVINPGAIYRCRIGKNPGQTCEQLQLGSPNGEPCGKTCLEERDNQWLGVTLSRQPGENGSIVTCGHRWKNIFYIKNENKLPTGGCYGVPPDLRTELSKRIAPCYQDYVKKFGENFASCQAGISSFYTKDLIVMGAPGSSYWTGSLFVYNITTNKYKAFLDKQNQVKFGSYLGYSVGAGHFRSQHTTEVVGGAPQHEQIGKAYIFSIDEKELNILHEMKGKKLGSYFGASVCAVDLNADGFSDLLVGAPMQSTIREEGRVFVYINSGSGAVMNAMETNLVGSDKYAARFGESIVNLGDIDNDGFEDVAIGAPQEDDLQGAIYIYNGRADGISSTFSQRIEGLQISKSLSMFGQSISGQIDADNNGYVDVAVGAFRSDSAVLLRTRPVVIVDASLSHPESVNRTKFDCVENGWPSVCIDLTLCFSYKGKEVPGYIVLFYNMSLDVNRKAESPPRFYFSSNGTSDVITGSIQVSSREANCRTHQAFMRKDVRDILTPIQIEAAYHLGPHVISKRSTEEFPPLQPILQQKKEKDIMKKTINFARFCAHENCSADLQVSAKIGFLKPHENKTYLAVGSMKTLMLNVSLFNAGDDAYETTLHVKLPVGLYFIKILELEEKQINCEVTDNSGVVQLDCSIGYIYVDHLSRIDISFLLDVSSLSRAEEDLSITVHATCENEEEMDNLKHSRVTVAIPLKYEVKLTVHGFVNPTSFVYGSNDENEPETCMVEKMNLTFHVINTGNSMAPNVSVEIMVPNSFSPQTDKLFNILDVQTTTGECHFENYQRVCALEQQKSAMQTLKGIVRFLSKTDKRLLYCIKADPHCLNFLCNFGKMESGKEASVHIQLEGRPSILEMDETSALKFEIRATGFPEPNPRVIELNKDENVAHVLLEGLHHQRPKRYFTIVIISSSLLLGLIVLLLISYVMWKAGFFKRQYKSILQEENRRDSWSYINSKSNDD
T1 sequence (P26010 20-798): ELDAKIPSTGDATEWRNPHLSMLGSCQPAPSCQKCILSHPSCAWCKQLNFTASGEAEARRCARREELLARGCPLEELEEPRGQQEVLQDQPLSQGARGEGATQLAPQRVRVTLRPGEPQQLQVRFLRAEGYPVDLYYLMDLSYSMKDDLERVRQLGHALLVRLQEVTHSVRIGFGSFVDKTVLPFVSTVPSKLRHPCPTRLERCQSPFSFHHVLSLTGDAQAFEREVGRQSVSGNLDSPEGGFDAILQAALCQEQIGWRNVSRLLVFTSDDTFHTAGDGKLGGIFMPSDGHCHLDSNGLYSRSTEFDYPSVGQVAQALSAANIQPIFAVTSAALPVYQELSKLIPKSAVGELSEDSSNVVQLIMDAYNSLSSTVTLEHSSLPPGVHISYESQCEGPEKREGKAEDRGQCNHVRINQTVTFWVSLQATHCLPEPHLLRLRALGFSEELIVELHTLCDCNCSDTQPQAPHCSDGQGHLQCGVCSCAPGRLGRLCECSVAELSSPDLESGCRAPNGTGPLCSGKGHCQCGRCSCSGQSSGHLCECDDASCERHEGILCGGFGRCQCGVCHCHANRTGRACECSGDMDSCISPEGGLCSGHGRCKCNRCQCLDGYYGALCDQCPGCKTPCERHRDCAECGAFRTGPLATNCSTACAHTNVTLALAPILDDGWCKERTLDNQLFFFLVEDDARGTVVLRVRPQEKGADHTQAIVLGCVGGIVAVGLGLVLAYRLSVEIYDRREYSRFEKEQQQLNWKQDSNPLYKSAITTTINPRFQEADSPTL
The experiment can be described thus: α4β7 Integrin Cell Capture Assay. It is filed as cell-based. The note with it: capture of α4β7 integrin expressing RPM18866 cells on MadCAM-1 extracellular domain-coated plate. As to the method: The potency of inhibitors in preventing α4β7 integrin interaction with MadCAM-1 was measured by monitoring the capture of α4β7 integrin expressing cells on a recombinant MadCAM-1 extracellular domain-coated plate.
384-well plates (Corning 3702) were coated with MadCAM-1 extracellular domain by dispensing 20 μL of MAdCAM-1 at 1.0 μg/mL per well and incubating overnight at 4° C. The plates were then washed with PBS and blocked with 3% BSA for 2 hours before being washed again.
(§1) RPM18866 cells were spun down and re-suspended in assay medium (DMEM+0.5% FBS+0.5 mM MnCl2) at a density of 0.5×10^6 cells/mL. The cells were then dispensed (60 μL/well) to a 384-well plate (Greiner 781280) that was previously spotted with 60 nL of test compound per well. The plates were incubated at 37° C. for 1 hour. 50 μL of cells were transferred to the blocked, MadCAM-1-coated plates and incubated for 30 minutes at 37° C. 10 μL of 12% glutaraldehyde containing Hoechst 33342 (0.06 mg/mL) was added to the cells (2% glutaraldehyde and 0.01 mg/mL final concentrations). The plates were incubated for 90 minutes at room temperature. The plates were then washed 3 times with 70 μL of PBS per well and imaged on a Cellomics ArrayScan instrument. The cells that were bound to the plate were counted and plotted against the compound concentration to determine the EC50 of the test compounds.

For a further experiment, the target named is T2, α4β1 integrin (Homo sapiens, UniProt P05556+P13612).
T2 construct: monitoring the capture of α4β1 expressing cells; endogenous in cells; host or cells: Jurkat
T2 sequence (P05556 21-798, one chain of several): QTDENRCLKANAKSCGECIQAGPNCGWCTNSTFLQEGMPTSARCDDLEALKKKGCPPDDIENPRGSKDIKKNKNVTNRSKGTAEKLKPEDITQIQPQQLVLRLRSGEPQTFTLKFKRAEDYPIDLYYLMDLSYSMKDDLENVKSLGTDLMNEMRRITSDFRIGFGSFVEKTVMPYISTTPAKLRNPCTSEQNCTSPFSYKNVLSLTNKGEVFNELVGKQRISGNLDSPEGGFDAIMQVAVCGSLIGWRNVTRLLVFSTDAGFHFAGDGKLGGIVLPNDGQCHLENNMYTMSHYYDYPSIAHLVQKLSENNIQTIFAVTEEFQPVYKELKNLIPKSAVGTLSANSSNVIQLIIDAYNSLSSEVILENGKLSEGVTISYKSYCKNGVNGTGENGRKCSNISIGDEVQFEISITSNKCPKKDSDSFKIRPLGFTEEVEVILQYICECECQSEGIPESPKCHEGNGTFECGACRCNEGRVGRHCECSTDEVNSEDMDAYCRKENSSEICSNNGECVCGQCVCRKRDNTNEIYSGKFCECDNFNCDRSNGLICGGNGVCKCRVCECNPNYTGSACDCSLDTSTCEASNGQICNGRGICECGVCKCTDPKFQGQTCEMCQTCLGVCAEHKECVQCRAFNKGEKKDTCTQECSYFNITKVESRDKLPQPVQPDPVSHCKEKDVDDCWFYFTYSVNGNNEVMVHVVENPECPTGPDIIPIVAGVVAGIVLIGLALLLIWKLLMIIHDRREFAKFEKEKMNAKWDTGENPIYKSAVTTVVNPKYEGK
The experiment can be described thus: α4β1 Cell Capture Assay. It is filed as cell-based. As to conditions: capture of α4β1 expressing Jurkat cells on VCAM-1 extracellular domain-coated plate. How it is done:
The potency of inhibitors in preventing α4β1 integrin interaction with VCAM-1 was measured by monitoring the capture of α4β1 expressing cells to a recombinant VCAM-1 extracellular domain-coated plate.
384-well plates (Corning 3702) were coated with VCAM-1 extracellular domain by dispensing 20 μL of VCAM-1 at 0.5 μg/ml per well and incubating overnight at 4° C. The plates were then washed with PBS and blocked with 3% BSA for 2 hours before being washed again.
as §1, with “Jurkat cells” for “RPM18866 cells”, “0.5×10^6 cells/ml.” for “0.5×10^6 cells/mL.”, “blocked, VCAM-1-coated” for “blocked, MadCAM-1-coated”, “10 μl” for “10 μL”, “0.01 mg/ml Hoechst 33342” for “0.01 mg/mL”

Turning to `Cc1c(C(F)(F)F)cn(C)c(=O)c1-c1ccc(C[C@H](NC(=O)c2c(F)cc(N3CCOC[C@@H]3C(F)(F)F)cc2F)C(=O)O)cc1` [Example 4, (S)-2-(2,6-difluoro-4-((R)-3-(trifluoromethyl)morpholino)benzamido)-3-(4-(1,4-dimethyl-2-oxo-5-(trifluoromethyl)-1,2-dihydropyridin-3-yl)phenyl)propanoic acid], the EC50 (as a rule, the midpoint of the concentration-response curve) is 1.2 nM on α4β7 integrin (Table 1) and 63.7 nM at α4β1 integrin (Table 1).

As to `Cc1cc(C[C@H](NC(=O)c2c(C)cc(N3CCOC[C@@H]3C(F)(F)F)cc2F)C(=O)O)ccc1-c1c(C(F)(F)F)cc(C)n(C)c1=O` [Example 5, (S)-3-(4-(1,6-dimethyl-2-oxo-4-(trifluoromethyl)-1,2-dihydropyridin-3-yl)-3-methylphenyl)-2-(2-fluoro-6-methyl-4-((R)-3-(trifluoromethyl)morpholino)benzamido)propanoic acid], the concentration for a half-maximal effect (EC50) at α4β7 integrin (Table 1) was 0.2 nM; on α4β1 integrin (Table 1) it was 16.6 nM.

Consider `Cn1c2c(c(=O)n(-c3ccc(C[C@H](NC(=O)c4c(F)cc(N5CCOC[C@@H]5C(F)(F)F)cc4F)C(=O)O)cc3)c1=O)CCOC2` [Example 61, (S)-2-(2,6-difluoro-4-((R)-3-(trifluoromethyl)morpholino)benzamido)-3-(4-(1-methyl-2,4-dioxo-1,2,4,5,6,8-hexahydro-3H-pyrano[3,4-d]pyrimidin-3-yl)phenyl)propanoic acid], for which the values for the EC50 on α4β7 integrin (Table 1) and on α4β1 integrin (Table 1) were 0.4 nM and 11.5 nM, respectively.

Consider `Cc1cc(N2CCOC[C@@H]2C(F)(F)F)cc(F)c1C(=O)N[C@@H](Cc1ccc(-n2c(=O)c3ccc(C#N)cc3n(C)c2=O)nc1)C(=O)O` [Example 76], for which the values for the EC50 at α4β7 integrin (Table 2) and on α4β1 integrin (Table 2) were 0.16 nM and 4.9 nM, respectively.

As to `CC[C@@H](Nc1cc(F)c(C(=O)N[C@@H](Cc2ccc(-c3c(C)c4cc(F)ccc4n(C)c3=O)cc2)C(=O)O)c(F)c1)C(F)(F)F` [Example 34], the EC50 on α4β7 integrin (Table 2) was found to be 3.2 nM; on α4β1 integrin (Table 2), 61.4 nM.

Regarding `CN(C)c1ccc2c(c1)c(=O)n(-c1ccc(C[C@H](NC(=O)c3c(F)cc(N4CCOC[C@@H]4C(F)(F)F)cc3F)C(=O)O)cc1)c(=O)n2C` [Example 36], the EC50 came to 1.2 nM at α4β7 integrin (Table 2) and 27.3 nM on α4β1 integrin (Table 2).

As for `CC[C@@H](Nc1cc(F)c(C(=O)N[C@@H](Cc2ccc(-n3c(=O)c4ccncc4n(C)c3=O)nc2)C(=O)O)c(F)c1F)C(F)(F)F` [Example 17, (S)-3-(6-(1-methyl-2,4-dioxo-1,4-dihydropyrido[3,4-d]pyrimidin-3(2H)-yl)pyridin-3-yl)-2-(2,3,6-trifluoro-4-(((R)-1,1,1-trifluorobutan-2-yl)amino)benzamido)propanoic acid], the EC50 was determined as 0.7 nM on α4β7 integrin (Table 1) and 58.9 nM at α4β1 integrin (Table 1).

With `CC[C@@H](N(c1cc(F)c(C(=O)N[C@@H](Cc2ccc(-n3c(=O)c4ccncc4n(C)c3=O)nc2)C(=O)O)c(F)c1)C1CC1)C(F)(F)F` [Example 19, (S)-2-(4-(cyclopropyl((R)-1,1,1-trifluorobutan-2-yl)amino)-2,6-difluorobenzamido)-3-(6-(1-methyl-2,4-dioxo-1,4-dihydropyrido[3,4-d]pyrimidin-3(2H)-yl)pyridin-3-yl)propanoic acid], the results for the EC50 on α4β7 integrin (Table 1) and on α4β1 integrin (Table 1) were 2 nM and 127 nM, respectively.

Turning to `Cc1cc(N2CCOC[C@@H]2C(F)(F)F)cc(F)c1C(=O)N[C@@H](Cc1ccc(-n2c(=O)c3ccncc3n(C)c2=O)c(F)c1)C(=O)O` [Example 84], the EC50 at α4β7 integrin (Table 2) amounted to 0.05 nM; on α4β1 integrin (Table 2), 1.7 nM.

Turning to `Cc1cc(N2CCOC[C@@H]2C(F)(F)F)cc(F)c1C(=O)N[C@@H](Cc1ccc(-n2c(=O)c3ccncc3n(C)c2=O)c(OC(F)(F)F)c1)C(=O)O` (atropisomer, axis not shown) [Example 93], the half-maximal effective concentration (EC50) at α4β7 integrin (Table 2) amounted to 0.4 nM; at α4β1 integrin (Table 2) it was 25.8 nM.

In the case of `Cc1cc(C[C@H](NC(=O)c2c(C)cc(N3CCOC[C@@H]3C(F)(F)F)cc2F)C(=O)O)ccc1-c1c(C)n(C)c(=O)n(C)c1=O` [Example 31], the EC50 worked out at 0.2 nM on α4β7 integrin (Table 2) and 11.6 nM on α4β1 integrin (Table 2).

In the case of `Cn1c(=O)n(-c2ccc(C[C@H](NC(=O)c3c(F)cc(N4CCOC[C@@H]4C(F)(F)F)cc3Cl)C(=O)O)cn2)c(=O)c2ccncc21` [Example 55, (S)-2-(2-chloro-6-fluoro-4-((R)-3-(trifluoromethyl)morpholino)benzamido)-3-(6-(1-methyl-2,4-dioxo-1,4-dihydropyrido[3,4-d]pyrimidin-3(2H)-yl)pyridin-3-yl)propanoic acid], the EC50 at α4β7 integrin (Table 1) came out at 0.1 nM; at α4β1 integrin (Table 1), 3.4 nM.

In the case of `CC[C@@H](Nc1cc(F)c(C(=O)N[C@@H](Cc2ccc(-c3c(C)n(C)c(=O)n(C)c3=O)cc2)C(=O)O)c(F)c1)C(F)(F)F` [Example 32], the EC50 at α4β7 integrin (Table 2) is 1.2 nM; on α4β1 integrin (Table 2), 14.4 nM.

For the compound `COc1cc(C[C@H](NC(=O)c2c(C)cc(N3CCOC[C@@H]3C(F)(F)F)cc2F)C(=O)O)ccc1-n1c(=O)c2ccncc2n(C)c1=O` [Example 27, (S)-2-(2-fluoro-6-methyl-4-((R)-3-(trifluoromethyl)morpholino)benzamido)-3-(3-methoxy-4-(1-methyl-2,4-dioxo-1,4-dihydropyrido[3,4-d]pyrimidin-3(2H)-yl)phenyl)propanoic acid], the EC50 at α4β7 integrin (Table 1) stood at 0.1 nM; on α4β1 integrin (Table 1), 8.6 nM.
